{"source": "patent US20150225369A1", "about": "“DDR2 INHIBITORS FOR THE TREATMENT OF OSTEOARTHRITIS” (Merck Patent GmbH, priority 2012, published 2015)", "note": "pIC50: −log10 of the molar value.", "data": [{"target": "T1, His-tagged human recombinant DDR-2 kinase domain (His-TEV-DDR2 467-855 aa) (Homo sapiens, UniProt Q16832)", "T1 construct": "His-TEV-DDR2 467-855 aa", "T1 sequence (Q16832 467-855)": "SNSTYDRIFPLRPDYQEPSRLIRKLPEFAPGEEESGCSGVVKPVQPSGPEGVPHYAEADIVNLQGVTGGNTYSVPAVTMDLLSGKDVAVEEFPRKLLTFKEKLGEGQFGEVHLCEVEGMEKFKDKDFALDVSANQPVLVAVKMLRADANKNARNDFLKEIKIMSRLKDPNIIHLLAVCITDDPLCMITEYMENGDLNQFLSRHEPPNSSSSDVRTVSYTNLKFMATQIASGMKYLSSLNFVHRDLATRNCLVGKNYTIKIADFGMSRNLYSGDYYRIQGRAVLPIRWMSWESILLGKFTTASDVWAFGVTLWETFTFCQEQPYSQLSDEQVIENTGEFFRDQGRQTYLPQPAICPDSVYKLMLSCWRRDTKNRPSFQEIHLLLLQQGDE", "assay": "Autophosphorylation assay for biochemical activity testing of DDR2 (HTRF)", "details": "4 nM DDR2 kinase domain, 150 μM ATP, 150 min at 22° C.", "summary_of_the_method": "(§1)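 Phospho-tyrosine was detected by HTRF between XL665 anti-6His and cryptate anti-phosphotyrosine PT66 antibodies, using the emission ratio. Inhibition was referenced to the inhibitor-free reaction.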", "values": [{"compound": "CNC(=O)c1cc(Oc2ccc(CNC(=O)Nc3cccnc3)cc2)ccn1", "note": "[compound 5]", "pIC50": 4.82}]}, {"target": "T1, His-tagged human recombinant DDR-2 kinase domain (His-TEV-DDR2 467-855 aa)", "assay": "Autophosphorylation assay for biochemical activity testing of DDR2 (HTRF)", "details": "Table 6; 4 nM DDR2 kinase domain, 150 μM ATP", "summary_of_the_method": "as §1", "values": [{"compound": "CNC(=O)c1cc(Oc2ccc(CCC(=O)Nc3ccc(Cl)c(C(F)(F)F)c3)cc2C)ccn1", "note": "[compound 3]", "pIC50": 5.80}]}, {"target": "T1, His-tagged human recombinant DDR-2 kinase domain (His-TEV-DDR2 467-855 aa)", "assay": "Autophosphorylation assay for biochemical activity testing of DDR2 (HTRF)", "details": "biochemical DDR2 autophosphorylation", "summary_of_the_method": "as §1", "values": [{"compound": "CNC(=O)c1cc(Oc2ccc(CNC(=O)Nc3cc(C(F)(F)F)ccc3OCCNS(C)(=O)=O)cc2)ccn1", "note": "[compound 180, 4-(4-{3-[2-(2-Methanesulfonylamino-ethoxy)-5-trifluoromethyl-phenyl]-ureidomethyl}-phenoxy)-pyridine-2-carboxylic acid methylamide]", "pIC50": 7.49}, {"compound": "CCN(CC)CCOc1cc(Cl)c(C(F)(F)F)cc1NC(=O)NCc1ccc(Oc2ccnc(C(=O)NC)c2)cc1", "note": "[compound 132, 4-(4-{3-[4-Chloro-2-(2-diethylamino-ethoxy)-5-trifluoromethyl-phenyl]-ureidomethyl}-phenoxy)-pyridine-2-carboxylic acid methylamide]", "pIC50": 6.90}, {"compound": "CNC(=O)c1cc(Oc2ccc(CNC(=O)Nc3cc(C)c(Cl)cc3OCCNC(=O)C(F)(F)F)cc2)ccn1", "note": "[compound 187, 4-[4-(3-{4-Chloro-5-methyl-2-[2-(2,2,2-trifluoro-acetylamino)-ethoxy]-phenyl}-ureidomethyl)-phenoxy]-pyridine-2-carboxylic acid methylamide]", "pIC50": 6.18}, {"compound": "CNC(=O)c1cc(Oc2ccc(CNC(=O)Nc3ccc(Cl)cc3OC)cc2)ccn1", "note": "[compound 79, 4-{4-[3-(4-Chloro-2-methoxy-phenyl)-ureidomethyl]-phenoxy}-pyridine-2-carboxylic acid methylamide]", "pIC50": 6.39}, {"compound": "CNC(=O)c1cc(Oc2ccc(CNC(=O)Nc3cc(C(F)(F)F)c(Cl)cc3OCCN)cc2)ccn1", "note": "[compound 140, 4-(4-{3-[2-(2-Amino-ethoxy)-4-chloro-5-trifluoromethyl-phenyl]-ureidomethyl}-phenoxy)-pyridine-2-carboxylic acid methylamide]", "pIC50": 6.92}, {"compound": "Cc1cc2nccc(Oc3ccc(CNC(=O)Nc4cc(C)c(Cl)cc4OCCN(C)C)cc3C)c2o1", "note": "[compound 253, 1-[4-Chloro-2-(2-dimethylamino-ethoxy)-5-methyl-phenyl]-3-[3-methyl-4-(2-methyl-furo[3,2-b]pyridin-7-yloxy)-benzyl]-urea]", "pIC50": 7.15}, {"compound": "CNC(=O)c1cc(Oc2ccc(CNC(=O)Nc3cc(C(F)(F)F)c(Cl)cc3OCCN3CCCC3)cc2)ccn1", "note": "[compound 129, 4-(4-{3-[4-Chloro-2-(2-pyrrolidin-1-yl-ethoxy)-5-trifluoromethyl-phenyl]-ureidomethyl}-phenoxy)-pyridine-2-carboxylic acid methylamide]", "pIC50": 6.60}, {"compound": "CNC(=O)c1cc(Oc2ccc(CNC(=O)Nc3cc(C)c(Cl)cc3OCCN3CCCC3)cc2C)ccn1", "note": "[compound 137, 4-(4-{3-[4-Chloro-5-methyl-2-(2-pyrrolidin-1-yl-ethoxy)-phenyl]-ureidomethyl}-2-methyl-phenoxy)-pyridine-2-carboxylic acid methylamide]", "pIC50": 6.85}, {"compound": "CNC(=O)c1cc(Oc2ccc(CNC(=O)Nc3cc4ccccc4nc3OC)cc2)ccn1", "note": "[compound 101, 4-{4-[3-(2-Methoxy-quinolin-3-yl)-ureidomethyl]-phenoxy}-pyridine-2-carboxylic acid methylamide]", "pIC50": 6.72}, {"compound": "CNC(=O)c1cc(Oc2ccc(CNC(=O)Nc3ccccn3)cc2)ccn1", "note": "[compound 85, 4-{4-[(3-Pyridin-2-yl-ureido)-methyl]-phenoxy}-pyridine-2-carboxylic acid methylamide]", "pIC50": 5.42}, {"compound": "CNC(=O)c1cc(Oc2ccc(CNC(=O)Nc3cc(C(F)(F)F)c(Cl)cc3OCCN3C(=O)c4ccccc4C3=O)cc2)ccn1", "note": "[compound 242, 4-[4-(3-{4-Chloro-2-[2-(1,3-dioxo-1,3-dihydro-isoindol-2-yl)-ethoxy]-5-trifluoromethyl-phenyl}-ureidomethyl)-phenoxy]-pyridine-2-carboxylic acid methylamide]", "pIC50": 6.36}, {"compound": "CNC(=O)c1cc(Oc2ccc(CNC(=O)Nc3cc(C)c(Cl)cc3OCCNS(C)(=O)=O)cc2)ccn1", "note": "[compound 193, 4-(4-{3-[4-Chloro-2-(2-methanesulfonylamino-ethoxy)-5-methyl-phenyl]-ureidomethyl}-phenoxy)-pyridine-2-carboxylic acid methylamide]", "pIC50": 6.74}]}, {"target": "T2, HEK293 transfected with human DDR2 (Homo sapiens, UniProt Q16832)", "T2 construct": "expressed in transfected cells; host or cells: HEK293 (PLT460F_(DDR2)-P7-1)", "T2 sequence (Q16832 22-855)": "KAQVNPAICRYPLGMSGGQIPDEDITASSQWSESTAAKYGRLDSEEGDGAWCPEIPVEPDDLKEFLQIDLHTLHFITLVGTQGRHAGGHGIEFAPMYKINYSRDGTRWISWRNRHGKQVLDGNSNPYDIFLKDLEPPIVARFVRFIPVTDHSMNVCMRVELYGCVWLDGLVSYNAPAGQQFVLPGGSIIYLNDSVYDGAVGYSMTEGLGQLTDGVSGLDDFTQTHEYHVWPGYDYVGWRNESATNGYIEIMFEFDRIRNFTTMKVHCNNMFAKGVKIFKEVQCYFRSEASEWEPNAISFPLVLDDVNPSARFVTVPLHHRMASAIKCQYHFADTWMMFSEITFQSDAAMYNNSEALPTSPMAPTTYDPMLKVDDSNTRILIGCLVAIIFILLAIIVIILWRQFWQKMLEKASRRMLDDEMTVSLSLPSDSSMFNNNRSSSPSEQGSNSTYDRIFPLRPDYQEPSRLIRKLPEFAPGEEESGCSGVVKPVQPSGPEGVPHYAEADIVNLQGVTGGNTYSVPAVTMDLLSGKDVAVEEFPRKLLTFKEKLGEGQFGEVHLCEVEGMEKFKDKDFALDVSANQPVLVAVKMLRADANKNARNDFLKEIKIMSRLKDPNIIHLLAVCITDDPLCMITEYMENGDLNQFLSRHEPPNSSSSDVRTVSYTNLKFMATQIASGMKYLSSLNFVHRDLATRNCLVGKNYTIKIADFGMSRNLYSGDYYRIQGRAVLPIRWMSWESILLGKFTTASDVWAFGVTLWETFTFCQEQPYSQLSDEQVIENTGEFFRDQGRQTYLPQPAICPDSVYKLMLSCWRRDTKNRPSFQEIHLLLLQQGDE", "assay": "Phospho-DDR2 cellular assay (collagen II induced DDR2 phosphorylation, ELISA)", "format": "cell-based", "details": "cellular phospho-DDR2; read-out: IC50 [p-DDR2]", "description": "Assays were performed in a 384 well plate format, using cell line HEK293 transfected with human DDR2 (PLT460F_(DDR2)-P7-1)\nCells were seeded at a density of 10'000 cells/well in 384well poly-D-lysine coated Black/clear plate (Cellcoat Greiner) and incubated in DMEM medium in the presence of 10% fetal bovine serum at 37° C., 5% CO2 for 48 h. Medium was replaced by serum-free medium and cells were incubated at 37° C., 5% CO2 for 8 h. Compound to be tested in 5% DMSO or 5% DMSO and 50 μg/ml of chicken collagen II were added and cells were incubated at 37° C., 5% CO2 for 16 h\nCells were rinsed with ice-cold PBS, lysed with lysis buffer (M-PER Thermo #78501) for 30 min at room temperature and centrifuged for 1 min at 1000 RPM. In parallel, White High binding 384 well plates (Corning) were coated with mouse anti-human DDR2 capture antibody (R&D Systems kit DuoSet IC Human phospho-DDR2 ELISA), overnight at RT.\nAn aliquot of cell lysate was transferred to the coated plates and incubated for 2 h at RT. Plates were washed and mouse anti-phospho-tyrosine detection antibody (R&D Systems kit DuoSet IC Human phospho-DDR2 ELISA) conjugated to horse radish peroxidase (HRP) was added for 2 h at RT. Plates were washed and chemiluminescent substrate for HRP (Thermo) was added for 15 min at RT. Luminescence was measured on a luminometer.", "values": [{"compound": "CNC(=O)c1cc(Oc2ccc(CNC(=O)Nc3cccc(C(F)(F)F)c3)cc2F)ccn1", "note": "[compound 233, 4-{2-Fluoro-4-[3-(3-trifluoromethyl-phenyl)-ureidomethyl]-phenoxy}-pyridine-2-carboxylic acid methylamide]", "pIC50": 7.57}, {"compound": "CNC(=O)c1cc(Oc2ccc(CNC(=O)Nc3cc(C)c(Cl)cc3N(C)CCN(C)C)cc2)ccn1", "note": "[compound 162, 4-[4-(3-{4-Chloro-2-[(2-dimethylamino-ethyl)-methyl-amino]-5-methyl-phenyl}-ureidomethyl)-phenoxy]-pyridine-2-carboxylic acid methylamide]", "pIC50": 5.80}, {"compound": "NCCNC(=O)c1cc(Oc2ccc(CNC(=O)Nc3ccc(Cl)c(C(F)(F)F)c3)cc2)ccn1", "note": "[compound 148, 4-{4-[3-(4-Chloro-3-trifluoromethyl-phenyl)-ureidomethyl]-phenoxy}-pyridine-2-carboxylic acid (2-amino-ethyl)-amide]", "pIC50": 6.11}, {"compound": "CNC(=O)c1cc(Oc2ccc(CNC(=O)Nc3cc(C)c(Cl)cc3-n3cccc3)cc2)ccn1", "note": "[compound 219, 4-{4-[3-(4-Chloro-5-methyl-2-pyrrol-1-yl-phenyl)-ureidomethyl]-phenoxy}-pyridine-2-carboxylic acid methylamide]", "pIC50": 6.94}, {"compound": "CNC(=O)c1cc(Oc2ccc(CNC(=O)Nc3ccc(OC)c(Cl)c3)cc2)ccn1", "note": "[compound 39, 4-{4-[3-(3-Chloro-4-methoxy-phenyl)-ureidomethyl]-phenoxy}-pyridine-2-carboxylic acid methylamide]", "pIC50": 7.19}, {"compound": "CNC(=O)c1cc(Oc2ccc(CNC(=O)Nc3ccc(NC(C)=O)c(C(F)(F)F)c3)cc2)ccn1", "note": "[compound 241, 4-{4-[3-(4-Acetylamino-3-trifluoromethyl-phenyl)-ureidomethyl]-phenoxy}-pyridine-2-carboxylic acid methylamide]", "pIC50": 6.15}, {"compound": "CNC(=O)c1cc(Oc2ccc(CNC(=O)Nc3cccc(NS(C)(=O)=O)c3)cc2C)ccn1", "note": "[compound 167, 4-{4-[3-(3-Methanesulfonylamino-phenyl)-ureidomethyl]-2-methyl-phenoxy}-pyridine-2-carboxylic acid methylamide]", "pIC50": 5.82}, {"compound": "CNC(=O)c1cc(Oc2ccc(CNC(=O)Nc3ccc(F)cc3)cc2)ccn1", "note": "[compound 12]", "pIC50": 6.11}, {"compound": "CNC(=O)c1cc(Oc2ccc(CNC(=O)Nc3ccc(C)cc3CO)cc2C)ccn1", "note": "[compound 196, 4-{4-[3-(2-Hydroxymethyl-4-methyl-phenyl)-ureidomethyl]-2-methyl-phenoxy}-pyridine-2-carboxylic acid methylamide]", "pIC50": 4.75}, {"compound": "CNC(=O)c1cc(Oc2ccc(CNC(=O)Nc3cc(Cl)cc(Cl)c3)cc2)ccn1", "note": "[compound 31]", "pIC50": 6.76}]}]}
